# Test results reported in PubChem BioAssay (NCI).
# Several values for one entry are separate records, joined by “and”; a condition that tells them apart may be missing. Equal entries are not always repeated.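 Five compound concentrations were applied to cells in 96-well plates for 48 hours; endpoints were derived by simple linear interpolation of the resulting dose-response curve. GI50 is the concentration that inhibits growth by half. TGI denotes the concentration required for complete inhibition of growth.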
# Key:
# Test in all cases: growth of human tumour cells (NCI), 48 h
# [1] = test system: T-47D breast
# [2] = test system: MDA-MB-435
# [3] = test system: MCF7 breast
# [4] = test system: SK-MEL-28 melanoma
# [5] = test system: SW-620 colon
# [6] = test system: ACHN renal
# [7] = test system: OVCAR-5 ovarian
# [8] = test system: HS 578T breast
# [9] = test system: HOP-62 NSCLC
# [10] = test system: SK-MEL-2 melanoma
SMILES,GI50 [1],TGI [1],GI50 [2],TGI [2],GI50 [3],TGI [3],GI50 [4],TGI [4],GI50 [5],TGI [5],GI50 [6],TGI [6],GI50 [7],TGI [7],GI50 [8],TGI [8],GI50 [9],TGI [9],GI50 [10],TGI [10]
COc1cc2c(cc1OCCCCCOc1ccc(-c3nc4ccccc4s3)cc1)N=C[C@@H]1CCCN1C2=O,0.799 µM,4.11 µM,10.5 µM,69.2 µM,1.21 µM,9.77 µM,8.74 µM,31.7 µM,3.01 µM,> 28.6 µM,2.73 µM,27.6 µM,2.74 µM,19.2 µM,2.02 µM,7.68 µM,1.62 µM,7.59 µM,4.86 µM,16.2 µM
C[C@]12CC[C@H]3[C@@H](CCC4=CC(=O)CC[C@@]43C)[C@]1(O)CC[C@]2(O)C(=O)CO,,> 100 µM,,> 100 µM,,> 100 µM,,> 100 µM,,> 100 µM,,> 100 µM,,> 100 µM,,> 100 µM,,> 100 µM,,> 100 µM
CC(C)OC(=O)Nc1c([N+](=O)[O-])cc(C(F)(F)F)cc1[N+](=O)[O-],,> 100 µM,,> 100 µM,,> 100 µM,,> 100 µM,,> 100 µM,,> 100 µM,,> 100 µM,,> 100 µM,,> 100 µM,,> 100 µM
CCOc1ccc2nc3cc(N)ccc3c(N)c2c1,0.336 µM and 0.385 µM,1.57 µM and 2.4 µM,10.6 µM and 7.74 µM,24.3 µM and 22.4 µM,2.05 µM and 1.66 µM,7.75 µM and 5.5 µM,4.4 µM and 4.3 µM,15.7 µM and 15.9 µM,3.1 µM and 3.08 µM,16.2 µM and 14.4 µM,7.01 µM and 3.93 µM,48.3 µM and 16.6 µM,16.2 µM and 12.8 µM,39 µM and 25.6 µM,1.29 µM and 1.03 µM,9.46 µM and 4.83 µM,1.49 µM and 1.58 µM,6.84 µM and 6.49 µM,2.36 µM and 2.22 µM,6.19 µM and 5.86 µM
N#Cc1cnc2ccc(NCc3cnc[nH]3)cc2c1Nc1ccc(F)c(Cl)c1,4.68 µM,> 100 µM,14.7 µM,88.5 µM,20.1 µM,> 100 µM,17.3 µM,58.4 µM,8.69 µM,> 100 µM,2.88 µM,> 100 µM,18.2 µM,> 100 µM,4.79 µM,> 100 µM,10.5 µM,> 100 µM,6.34 µM,> 100 µM
Oc1ccc(CCNc2nc3ccccc3c3[nH]c4ccccc4c23)cc1O,14.2 µM,32.2 µM,1.7 µM,3.26 µM,3.13 µM,,5.85 µM,18.3 µM,1.66 µM,3.44 µM,2.14 µM,5.76 µM,14 µM,26.9 µM,8.28 µM,> 100 µM,3.78 µM,13.5 µM,1.73 µM,3.59 µM
COc1ccc2c(c1[N+](=O)[O-])CC[C@@H]1[C@@H]2CC[C@]2(C)C(=O)CC[C@@H]12,675 µM,> 1000 µM,> 1000 µM,> 1000 µM,998 µM,> 1000 µM,> 843 µM,,> 1000 µM,> 1000 µM,424 µM,> 1000 µM,> 1000 µM,> 1000 µM,119 µM,,322 µM,> 6.71 µM and 639 µM,275 µM,
